Patent US11040047B2, “Prodrugs of nucleoside phosphonates” (Katholieke Universiteit Leuven, priority 2017, dated 2021)
pEC50: −log10 of the molar value. Read-outs that look alike come from different tables or passages of the source.

How the values were obtained:
HEL cells [1] = test: Cytotoxicity, minimum cytotoxic concentration (cell morphology) in HEL cells; conditions: minimum concentration causing microscopically detectable alteration of cell morphology
[2] = system: varicella-zoster virus (VZV) strain Oka; test: Inhibition of plaque formation, VZV TK+ Oka, in HEL fibroblasts; format: cell-based; conditions: Human alphaherpesvirus 3, HEL, read-out: Antiviral activity EC50 VZV TK+ strain (OKA)
TK− VZV strain 07-1 = test: microbe, parasite or virus in culture; format: cell-based, varicella-zoster virus; conditions: Human alphaherpesvirus 3, HEL, read-out: Antiviral activity EC50 VZV TK− strain
[3] = system: Vaccinia virus (strain Lederle, ATCC VR-118); test: microbe, parasite or virus in culture; format: cell-based; conditions: Orthopoxvirus vaccinia, HEL 299, 96 h, read-out: Antiviral activity EC50 Vaccinia virus
HEL 299 cells = conditions: human
in vitro = conditions: human
HEL cells [4] = test: Cytostatic activity, inhibition of HEL cell growth (CC50); conditions: read-out: Cytotoxicity HEL cells CC50, concentration reducing cell viability/proliferation by 50%, 3 days
[5] = system: human cytomegalovirus (HCMV) strain AD-169; test: Inhibition of virus-induced cytopathicity, HCMV AD-169, in HEL fibroblasts; format: cell-based; conditions: read-out: Antiviral activity EC50 HCMV AD-169 strain
[6] = system: human cytomegalovirus (HCMV) strain Davis; test: Inhibition of virus-induced cytopathicity, HCMV Davis, in HEL fibroblasts; format: cell-based; conditions: read-out: Antiviral activity EC50 HCMV Davis strain
[7] = system: human adeno virus-2 (clinical isolate C251085); test: Inhibition of virus-induced cytopathicity, human adeno virus-2, in HEL 299 cells; format: cell-based; conditions: Human mastadenovirus C, 240 h, 10 days, cytopathicity reduced by 50%, read-out: Antiviral activity EC50 Adenovirus 2
[8] = Human betaherpesvirus 5, AD169, HEL cells, reduction of virus-induced cytopathicity by 50%
[9] = Human betaherpesvirus 5, AD169, HEL

Structure (SMILES)	Cytotoxicity HEL cells MCC (HEL cells [1]; Table 1)	Cytotoxicity HEL cells MCC (HEL cells [1]; Table 2)	pEC50 [2]	pEC50 (TK− VZV strain 07-1)	pEC50 [3]	Cytotoxicity MCC (HEL 299 cells)	CC50 at 3 days (in vitro)	CC50 (HEL cells [4]; Table 1)	pEC50 [5, 8]	pEC50 ([6]; Human betaherpesvirus 5, HEL cells, reduction of virus-induced cytopathicity by 50%)	pEC50 [7]	CC50 at 3 days (in vitro; HEL cells)	pEC50 [5, 9]	pEC50 ([6]; Human betaherpesvirus 5, HEL)	CC50 (HEL cells [4]; Table 2)
Nc1nc2c(ncn2COCCO)c(=O)[nH]1 [Acyclovir, reference compound]	>88.8	>88.8	–	–	–	–	–	–	–	–	–	–	–	–	–
O=c1[nH]c(=O)n([C@H]2C[C@H](O)[C@@H](CO)O2)cc1/C=C/Br [Brivudin, reference compound]	>30.0	>30.0	7.28	4.66	5.24	>250	> 300000 nM	> 300000 nM	–	–	–	–	–	–	–
Nc1ccn(C[C@@H](CO)OCP(=O)(O)O)c(=O)n1 [Cidofovir, reference compound]	>71.6	>71.6	–	–	4.30	>250	–	> 358000 nM	5.80	6.08	5.00	> 358000 nM	–	–	–
CCCCCOC(=O)C[C@H](NP1(=O)CO[C@@H](Cn2cnc3c(N)ncnc32)CO1)C(=O)OCCCCC (stereo partly drawn) [Example 8, Diamyl {(5S)-5-[(6-amino-9H-purin-9-yl)methyl]-2-oxido-1,4,2-dioxaphosphinan-2-yl}-L-aspartate]	13.6	13.6	8.85	8.82	7.11	≥20	2730 nM	–	–	–	6.74	–	7.57	8.05	–
CCCCCOC(=O)C[C@H](NP1(=O)CO[C@H](Cn2cnc3c(N)ncnc32)CO1)C(=O)OCCCCC (stereo partly drawn) [Example 9, Diamyl {(5R)-5-[(6-amino-9H-purin-9-yl)methyl]-2-oxido-1,4,2-dioxaphosphinan-2-yl}-L-aspartate]	>18.5	>18.5	7.48	7.21	–	–	11600 nM	–	–	–	–	–	5.36	5.79	–
CCCCCOC(=O)C[C@H](NP1(=O)CO[C@@H](Cn2ccc(N)nc2=O)CO1)C(=O)OCCCCC (stereo partly drawn) [Example 10, Diamyl {(5S)-5-[(4-amino-2-oxopyrimidin-1(2H)-yl)methyl]-2-oxido-1,4,2-dioxaphosphinan-2-yl}-L-aspartate]	19.4	19.4	8.26	8.20	–	–	–	–	–	–	–	33100 nM	7.92	7.72	–
CCCCCOC(=O)C[C@H](NP1(=O)CO[C@H](Cn2ccc(N)nc2=O)CO1)C(=O)OCCCCC (stereo partly drawn) [Example 11, Diamyl {(5R)-5-[(4-amino-2-oxopyrimidin-1(2H)-yl)methyl]-2-oxido-1,4,2-dioxaphosphinan-2-yl}-L-aspartate]	>19	>19	6.09	5.91	–	–	–	–	–	–	–	> 194000 nM	5.57	5.45	> 194000 nM
CCCCCOC(=O)[C@H](Cc1ccccc1)NP1(=O)CO[C@@H](Cn2cnc3c(N)ncnc32)CO1 (stereo partly drawn) [Example 12, Amyl ((5S)-5-((6-amino-9H-purin-9-yl)methyl)-2-oxido-1,4,2-dioxaphosphinan-2-yl)-L-phenylalaninate]	9.3	9.3	9.28	8.49	–	–	30600 nM	–	–	–	–	–	7.51	7.77	–
CCCCCOC(=O)[C@H](CCSC)NP1(=O)CO[C@@H](Cn2cnc3c(N)ncnc32)CO1 (stereo partly drawn) [Example 13, Amyl ((5S)-5-((6-amino-9H-purin-9-yl)methyl)-2-oxido-1,4,2-dioxaphosphinan-2-yl)-L-methioninate]	4.11	4.11	8.59	8.40	–	–	39600 nM	–	–	–	–	–	7.49	7.54	–
CCCCCOC(=O)[C@H](C)NP1(=O)CO[C@@H](Cn2cnc3c(N)ncnc32)CO1 (stereo partly drawn) [Example 14, Amyl ((5S)-5-((6-amino-9H-purin-9-yl)methyl)-2-oxido-1,4,2-dioxaphosphinan-2-yl)-L-alaninate]	23.5	23.5	8.70	8.37	–	–	3400 nM	–	–	–	–	–	7.19	7.19	–
CCCCCOC(=O)CC[C@H](NP1(=O)CO[C@@H](Cn2cnc3c(N)ncnc32)CO1)C(=O)OCCCCC (stereo partly drawn) [Example 15, Diamyl {(5S)-5-[(6-amino-9H-purin-9-yl)methyl]-2-oxido-1,4,2-dioxaphosphinan-2-yl}-L-glutamate]	13.2	13.2	9.24	9.02	–	–	520 nM	–	–	–	–	–	7.85	8.12	–
CCCCCOC(=O)[C@@H](NP1(=O)CO[C@@H](Cn2cnc3c(N)ncnc32)CO1)C(C)C (stereo partly drawn) [Example 16, Amyl {(5S)-5-[(6-amino-9H-purin-9-yl)methyl]-2-oxido-1,4,2-dioxaphosphinan-2-yl}-L-valinate]	4.40	4.40	9.24	8.82	–	–	7760 nM	–	–	–	–	–	8.23	8.32	–
CCCCCOC(=O)[C@H](CC(C)C)NP1(=O)CO[C@@H](Cn2cnc3c(N)ncnc32)CO1 (stereo partly drawn) [Example 17, Amyl {(5S)-5-[(6-amino-9H-purin-9-yl)methyl]-2-oxido-1,4,2-dioxaphosphinan-2-yl}-L-leucinate]	4.27	4.27	9.33	9.23	7.11	≥0.8	1620 nM	–	–	–	7.36	–	8.24	8.42	–
CCCCCOC(=O)[C@@H](NP1(=O)CO[C@@H](Cn2cnc3c(N)ncnc32)CO1)[C@@H](C)CC (stereo partly drawn) [Example 18, Amyl {(5S)-5-[(6-amino-9H-purin-9-yl)methyl]-2-oxido-1,4,2-dioxaphosphinan-2-yl}-L-isoleucinate]	9.96	9.96	9.35	9.27	–	–	12000 nM	–	–	–	–	–	8.15	8.19	–
CCCCCOC(=O)[C@@H](NP(=O)(CO[C@H](CO)Cn1cnc2c(N)ncnc21)N[C@H](C(=O)OCCCCC)C(C)C)C(C)C [Example 19, diamyl 2,2′-((((((S)-1-(6-amino-9H-purin-9-yl)-3-hydroxypropan-2-yl)oxy)methyl)phosphoryl)bis(azanediyl))(2S,2′S)-bis(3-methylbutanoate)]	8.57	8.57	8.82	9.02	7.37	≥20	600 nM	–	–	–	7.87	–	7.00	7.14	–
Nc1nc(O)c2ncn(COC(CO)CO)c2n1 [Ganciclovir, reference compound]	>39.2	>39.2	–	–	–	–	–	–	5.13	–	–	–	–	–	–
Nc1nc2c(ncn2CCC(CO)CO)c(=O)[nH]1 [Penciclovir, reference compound]	>79.0	–	–	–	–	–	–	> 395000 nM	–	–	–	–	–	–	–
